Measured values reported in patent US10780076B2, “Inhibition of cancer cell motility” (Northwestern University, priority 2014, dated 2020).

Experiments:
human prostate cells = test: Three day cell growth inhibition, prostate cells; type: cell-based; details: 3 days
[1] = Systemic off-target effects: organ histology and organ function; type: in vivo, mice
From the text: FIG. 13. KBU2046 treatment is not associated with systemic off-target effects. […] After 35 days of treatment, the following organs were harvested at necropsy, and stained with H&E (alternative staining methods as indicated): heart, lungs, esophagus, stomach, colon, small intestine, liver (Trichrome staining), kidneys (Trichrome staining), adrenals, bladder, prostate, spleen, pancreas, brain, testes, and bone marrow and peripheral blood (Giemsa staining). Organs were examined for damage using a semi-quantitative histological scoring system (Knodell et al., 1981; herein incorporated by reference in its entirety). […] Changes in the liver observed in control mice were not increased by KBU2046 treatment. […] On day 8 and 14, all critical organs were weighed, and the following parameters measured in blood: cholesterol, triglycerides, alanine aminotransferase (ALT), aspartate aminotransferase (AST), total bilirubin, glucose, phosphorus, total protein, calcium, blood urea nitrogen (BUN), creatinine, albumin, Na, K, Cl, white blood cells (with differential), red blood cells, hemoglobin, platelets.
Orthotopic implantation of human PCa cells and quantification of distant metastasis was performed as described (Pavese et al., 2013; herein incorporated by reference in its entirety). […] Quantification of KBU2046 plasma concentrations was performed by LCMS. […]

[2] = Plasma KBU2046 concentration in chow-treated athymic mice; type: in vivo
Experimental: (§1) FIGS. 3A-D. KBU2046 inhibits cancer metastasis and prolongs life. (A, B) Inhibition of PCa metastasis. Cohorts of athymic mice bearing human PCa PC3-M cell orthotopic implants (A), or of non-tumor bearing athymic mice (B), were treated with KBU2046 incorporated into chow, and resultant lung metastasis (A) or plasma KBU2046 concentration (B) measured. Values are the mean±SEM. The relationship between dose and metastasis was evaluated by two-sided ANOVA (A). (C) Comprehensive characterization of KBU2046 phannacokinetics. CD1 mice were dosed with 100 mg KBU2046/kg via oral gavage or intravenous injection (iv), and blood collected at the indicated time points. The dotted horizontal line denotes a concentration of 24 nM, which was the concentration of KBU2046 measured in the blood of mice whose metastasis were suppressed by 92% (A, B). […]
Orthotopic implantation of human PCa cells and quantification of distant metastasis was performed as described (Pavese et al., 2013; herein incorporated by reference in its entirety). […] Quantification of KBU2046 plasma concentrations was performed by LCMS. […] Critical organs were examined for structural damage using a semi-quantitative histological scoring system (Knodell et al., 1981; herein incorporated by reference in its entirety), while their function was assessed by comprehensive clinical laboratory testing of blood samples. […]

[3] = Pharmacokinetics in CD1 mice; type: in vivo; details: single oral dose
Experimental: as §1
FIG. 11. […] (top graph) Concentration versus time plot, expressed as ng/ml. The 100 mg dosing data was re-plotted and expressed as nM. […] Values are parameter estimates from a naive pooled data approach in which single plasma concentrations measured for individual animals were pooled for both routes of administration of both doses and modeled simultaneously.
Orthotopic implantation of human PCa cells and quantification of distant metastasis was performed as described (Pavese et al., 2013; herein incorporated by reference in its entirety). […]

[4] = system: phosphorylated Ser226 on HSP90β in PC3 cells; test: PhosphoScan LC-MS/MS of BL4176 immunoprecipitate; type: cell-based, human; details: 10 μM, 3 days, then TGFβ
Experimental: FIG. 16. Identification of the 83 kDa band using a proteomic approach. PC3 cells were pre-treated with 10 μM KBU2046 or vehicle (control) for 3 days, then treated with TGFβ for 1 hr, and the resultant cell lysates were subjected to immunoprecipitation with BL4176 (Kinoview® phospho-motif antibody). Proteins bound in this manner were analyzed using PhosphoScan™ technology. This identified 483 unique phosphopeptide assignments from 306 parent proteins, with a mean false discovery rate of 0.30% (estimated via Sorcerer search of composite human database of forward and reverse protein entries). Only proteins where the average values for treatment and control were each 3 times that of background were considered. Further, it was required that each of the replicate values (used to calculate the average) to be >/=2.5 fold above background. According to these parameters, there were 19 phospho-proteins whose expression decreased in cells treated with KBU2046, compared to control.
Screening for changes in the kinome induced by KBU2046 were evaluated with the Kinoview™ assay system. Proteins pulled down by motif-directed Kinoview™ antibody were identified through PhosphoScan™ technology, using LTQ-Orbitrap LC-MS/MS analysis coupled to a SEQUEST/Sorcerer data analysis suite (Lundgren et al., 2009; herein incorporated by reference in its entirety). […]

**Q.** For `O=C1c2ccccc2OCC1c1ccc(F)cc1` (racemic) [KBU2046, 4′-fluoroisoflavanone], which “toxicity to human prostate cells (cell growth inhibition)” value (human prostate cells) is on record?
**A.** The value was “not toxic”.

**Q.** And the “organ damage by histologic examination” value ([1]; Balb/c athymic mice, 35 days of treatment)?
**A.** The value was “No organ damage was observed”.

**Q.** And the “organ weights and blood chemistry/hematology parameters” value ([1]; CD1 mice, single iv 15, 75 or 125 mg/kg, day 8 and 14)?
**A.** Its value is “No abnormal alterations in any of these parameters were observed”.

**Q.** What about the “plasma concentrations at which metastasis decreased” value [2] of the same molecule?
**A.** The value was 1.1 to 24 nM.

**Q.** And the “time plasma concentration maintained >24 nM” value [3]?
**A.** Its value is 9.3 h.

**Q.** And the “decrease in abundance of phosphorylated Ser226 on HSP90β” value [4]?
**A.** The value was 6.6 fold.
